Assays:
[1] = after oral administration; cited from earlier work
[2] = Open-label SAD and MAD study, safety and tolerability in healthy subjects and patients (Example 5); assay type: in vivo, humans; details: washout period following oral olanzapine, 4/127
Method: (§1) This study was an open-label, SAD, and MAD study to evaluate the safety, tolerability, and PK of Formulation 1 in healthy subjects and patients with a diagnosis of schizophrenia or schizoaffective disorder. Healthy subjects received subtherapeutic Formulation 1 doses of up to 105 mg and patients received therapeutic doses of up to 566 mg. […] Subjects and patients who met screening eligibility were assigned to 1 of 8 active cohorts, or the Vehicle Cohort, as detailed in Table 5.1 below.
Safety was assessed during the study by evaluating AEs, clinical laboratory test results (serum, hematology, urinalysis, and prolactin), vital signs measurements, ECG, physical examination, injection site pain, local tolerability, and leakage assessment. […]
The safety endpoints in this study included incidence of adverse events, changes from baseline in ECG parameters, selected clinical laboratory values (including prolactin) and vital signs, as well as changes in neurological and clinical symptom assessments (eg, PANSS, ESRS, AIMS, BARS, CGI-S, C-SSRS), and other safety measures that were evaluated throughout the study.

[3] = Open-label SAD and MAD study, pharmacokinetics in healthy subjects and patients (Example 5); assay type: in vivo, humans; details: oral, 2.5 to 20 mg/day for 7 days, steady-state
Method: as §1
All cohorts included assessments of safety, tolerability, and intensive PK sampling.
Except for the starting dose of 70 mg, the study followed an adaptive design in which the decision to dose-escalate with Formulation 1 was based on a review of the PK and safety data from the preceding lower dose of Formulation 1.
An extensive PK collection scheme was applied following the last oral dose to fully characterize the PK at steady-state.
In multiple-dose cohorts, the 3 doses of Formulation 1 were administered on day 1, day 29 (week 4) and day 57 (week 8), respectively.

## Cc1cc2c(s1)Nc1ccccc1N=C2N1CCN(C)CC1 [olanzapine, 2-methyl-4-(4-methyl-1-piperazinyl)-10H-thieno[2,3-b][1,5]benzodiazepine]
[1]
  Half life: approximately 30 hours
[2]
  Participants withdrawn due to adverse events: 3.1%
[3]
  Systemic exposure (Cmax, AUCt,ss) versus dose: dose-proportional

— patent US20260216206A1 (MEDINCELL SA, priority 2023, published 2026)
